± gives the expanded uncertainty stated by the source.
Assay: mn = molality of the nth substance listed, in mol/kg
Details: 101 kPa, Liquid; for electrical conductivity: METLER TOLEDO SevenEasyTM conductivity meter

CCCC[P+](CC)(CCCC)CCCC.[Br-] [ethyltributylphosphonium bromide] + O
Details	electrical conductivity, 298.15 K [S/m]	electrical conductivity, 303.15 K [S/m]	electrical conductivity, 308.15 K [S/m]	mass density, 298.15 K [kg/m3]	mass density, 303.15 K [kg/m3]	mass density, 308.15 K [kg/m3]	viscosity, 298.15 K [mPa·s]	viscosity, 303.15 K [mPa·s]	viscosity, 308.15 K [mPa·s]
m1 = 0.5002	1.77 ± 0.02	1.83 ± 0.02	1.89 ± 0.02	1010.54 ± 0.17	1008.66 ± 0.17	1006.6 ± 0.17	1.404 ± 0.16	1.225 ± 0.16	1.084 ± 0.16
m1 = 0.7497	2.04 ± 0.02	2.14 ± 0.02	2.21 ± 0.02	1016.07 ± 0.18	1013.98 ± 0.18	1011.69 ± 0.18	1.801 ± 0.16	1.589 ± 0.16	1.426 ± 0.16
m1 = 1	2.21 ± 0.02	2.33 ± 0.02	2.41 ± 0.02	1021.34 ± 0.19	1018.99 ± 0.19	1016.49 ± 0.19	2.006 ± 0.17	1.742 ± 0.16	1.524 ± 0.16
m1 = 1.995	2.35 ± 0.02	2.49 ± 0.02	2.63 ± 0.02	1038.07 ± 0.23	1034.94 ± 0.23	1031.74 ± 0.23	3.177 ± 0.17	2.633 ± 0.17	2.19 ± 0.17
m1 = 3.001	2.2 ± 0.02	2.36 ± 0.02	2.55 ± 0.02	1048.55 ± 0.26	1045.08 ± 0.26	1041.59 ± 0.25	4.806 ± 0.19	3.978 ± 0.18	3.331 ± 0.17
m1 = 4	2.03 ± 0.02	2.21 ± 0.02	2.42 ± 0.02	1055.26 ± 0.29	1051.66 ± 0.28	1048.01 ± 0.28	6.391 ± 0.2	5.291 ± 0.19	4.447 ± 0.19
m1 = 4.997	1.87 ± 0.02	2.05 ± 0.02	2.25 ± 0.02	1060.4 ± 0.31	1056.71 ± 0.31	1053 ± 0.3	7.976 ± 0.22	6.54 ± 0.21	5.441 ± 0.2
m1 = 5.998	1.72 ± 0.02	1.9 ± 0.02	2.11 ± 0.02	1064.15 ± 0.33	1060.43 ± 0.32	1056.66 ± 0.32	9.681 ± 0.27	7.852 ± 0.22	6.459 ± 0.21
m1 = 6.501	1.65 ± 0.02	1.85 ± 0.02	2.06 ± 0.02	1065.49 ± 0.34	1062.17 ± 0.33	1058.22 ± 0.33	10.62 ± 0.29	8.579 ± 0.24	7.005 ± 0.21
m1 = 6.984	1.58 ± 0.02	1.78 ± 0.02	1.98 ± 0.02	1066.91 ± 0.34	1063.18 ± 0.34	1059.41 ± 0.33	11.58 ± 0.32	9.33 ± 0.26	7.561 ± 0.22
m1 = 8.001	–	–	–	1069.18 ± 0.36	1065.46 ± 0.35	1061.69 ± 0.34	–	–	–
m1 = 8.994	–	–	–	1070.97 ± 0.37	1067.25 ± 0.36	1063.49 ± 0.35	–	–	–

CCCC[P+](CCCC)(CCCC)CCCC.[Br-] [tetrabutylphosphonium bromide] + O
Details	electrical conductivity, 298.15 K [S/m]	electrical conductivity, 303.15 K [S/m]	electrical conductivity, 308.15 K [S/m]	mass density, 298.15 K [kg/m3]	mass density, 303.15 K [kg/m3]	mass density, 308.15 K [kg/m3]	viscosity, 298.15 K [mPa·s]	viscosity, 303.15 K [mPa·s]	viscosity, 308.15 K [mPa·s]
m1 = 0.4996	1.61 ± 0.02	1.65 ± 0.02	1.72 ± 0.02	1008.5 ± 0.17	1006.58 ± 0.17	1004.44 ± 0.17	1.483 ± 0.16	1.282 ± 0.16	1.142 ± 0.16
m1 = 0.7513	1.81 ± 0.02	1.89 ± 0.02	1.99 ± 0.02	1013.67 ± 0.18	1011.4 ± 0.18	1008.98 ± 0.17	1.871 ± 0.16	1.677 ± 0.16	1.469 ± 0.16
m1 = 0.9998	1.93 ± 0.02	2.03 ± 0.02	2.15 ± 0.02	1017.95 ± 0.19	1015.41 ± 0.19	1012.75 ± 0.18	2.246 ± 0.17	1.915 ± 0.16	1.66 ± 0.16
m1 = 1.999	1.97 ± 0.02	2.08 ± 0.02	2.251 ± 0.02	1030.09 ± 0.22	1026.84 ± 0.22	1023.52 ± 0.22	3.875 ± 0.18	3.1 ± 0.17	2.61 ± 0.17
m1 = 2.999	1.84 ± 0.02	1.95 ± 0.02	2.13 ± 0.02	1037.03 ± 0.25	1033.51 ± 0.24	1029.96 ± 0.24	5.641 ± 0.2	4.589 ± 0.19	3.839 ± 0.18
m1 = 4.004	1.69 ± 0.02	1.81 ± 0.02	2 ± 0.02	1041.4 ± 0.27	1037.76 ± 0.27	1034.07 ± 0.26	7.374 ± 0.21	6.059 ± 0.2	5.037 ± 0.19
m1 = 4.994	1.54 ± 0.02	1.66 ± 0.02	1.85 ± 0.02	1044.28 ± 0.29	1040.58 ± 0.28	1036.87 ± 0.28	9.03 ± 0.23	7.403 ± 0.22	6.085 ± 0.2
m1 = 6.002	1.43 ± 0.02	1.54 ± 0.02	1.73 ± 0.02	1046.66 ± 0.31	1042.92 ± 0.3	1039.15 ± 0.29	10.65 ± 0.25	8.71 ± 0.23	7.101 ± 0.22
m1 = 6.503	1.4 ± 0.02	1.51 ± 0.02	1.68 ± 0.02	1047.29 ± 0.31	1043.96 ± 0.31	1039.91 ± 0.3	11.46 ± 0.27	9.333 ± 0.24	7.618 ± 0.22
m1 = 7.006	1.33 ± 0.02	1.44 ± 0.02	1.61 ± 0.02	1048.18 ± 0.32	1044.43 ± 0.31	1040.68 ± 0.3	12.29 ± 0.28	9.946 ± 0.25	8.17 ± 0.23
m1 = 8	–	–	–	1049.41 ± 0.33	1045.66 ± 0.32	1041.87 ± 0.31	–	–	–
m1 = 8.996	–	–	–	1050.43 ± 0.34	1046.7 ± 0.33	1042.93 ± 0.32	–	–	–
